{"source": "paper PMC9674596", "about": "“Origin of acetylcholine antagonism in ELIC, a bacterial pentameric ligand-gated ion channel” (Communications Biology, 2022)", "key": {"wild-type ELIC [1]": {"target": "T1, wild-type ELIC (Dickeya chrysanthemi, UniProt P0C7B7, INS163G)", "T1 construct": "expressed in transfected cells; host or cells: Xenopus laevis oocytes injected with cRNA from ELIC-pTLN", "conditions": "cited from earlier work"}, "wild-type ELIC [2]": {"target": "T1, wild-type ELIC", "assay": "Two-electrode voltage clamp, whole-cell currents of wild-type ELIC expressed in Xenopus laevis oocytes", "assay_type": "cell-based, Erwinia chrysanthemi", "description": "(§1) Stage V-VI Xenopus laevis oocytes were isolated[72] and deflocculated enzymatically in ND96 buffer without Ca^2+ (96 mM NaCl, 2 mM KCl, 1 mM MgCl2, 2 mM pyruvate, 5 mM HEPES, pH 7.4), but supplemented with 1 mg/mL collagenase B and 1 mg/mL trypsin inhibitor, for 2 h at room temperature under constant stirring. The deflocculation buffer was then gradually removed by washing the oocytes in ND96 buffer (96 mM NaCl, 2 mM KCl, 1 mM MgCl2, 1 mM CaCl2, 2 mM pyruvate, 5 mM HEPES, pH 7.4) for several iterations. The oocytes were then allowed to stir for an additional hour at room temperature under constant stirring with the buffer being periodically replaced until clear. To obtain optimal receptor expression, individually selected and healthy oocytes were injected with 0.2 ng cRNA for wild-type ELIC and 5 ng cRNA for mutants. Subsequently, oocytes were incubated for one day at 16 °C in ND96^+ buffer (96 mM NaCl, 2 mM KCl, 1 mM MgCl2, 1 mM CaCl2, 2 mM pyruvate, and 5 mM HEPES at pH 7.6). After expression, injected oocytes were placed in a RC-1Z oocyte chamber (Harvard Apparatus; Hamden, CT) containing buffer (pH 7.4) composed of 150 mM NaCl, 0.5 mM BaCl2, 10 mM HEPES, and 1 mM dithiothreitol or 1 µM atropine if cysteamine, or ACh, was used in the experiment, respectively. The presence of the reducing agent, dithiothreitol, ensures that the sulfhydryl group of cysteamine remains reduced.\n(§2) Once in the oocyte chamber, whole-cell currents were recorded using a two-electrode voltage-clamp apparatus (OC-725C oocyte clamp; Harvard Apparatus), with a buffer flow rate of 5–10 mL min^−1. Currents in response to various additions of cysteamine and/or ACh, were measured with the transmembrane voltage clamped at −60 mV. Dose response curves for each wild-type and mutant ELIC were acquired from at least five oocytes in two different batches.\n(§3) For identifying the half maximal effective concentration (EC50) and apparent Hill coefficient (nH) of cysteamine, dose response curves were created by taking the magnitude of each cysteamine-activated peak current (I) and normalizing this value to the maximal peak current in the presence of excess agonist (Imax). The log (base 10) cysteamine concentration in molar was then plotted on the x-axis against the fractional response (I/Imax) on the y-axis. The data was fitted using nonlinear regression with a variable slope sigmoidal dose response (Eq. 1, below) in GraphPad Prism (v.8.0.0).1 y=1/1+10^nH^LogEC50−X\nIndividual EC50 and Hill coefficients were averaged for each oocyte to derive a mean ± standard deviation. […] […] The log (base 10) ACh concentration was then plotted on the x-axis against the fractional response (I/Io) on the y-axis. Subsequent steps were the same as above for deriving a cysteamine EC50 and Hill coefficient. The individual IC50 and Hill coefficients were averaged for each oocyte to derive a mean ± one standard deviation. Lastly, to identify four normalized response values, cysteamine at the 10% maximal effective concentration (EC10), 20% maximal effective concentration (EC20), EC50 and 90% maximal effective concentration (EC90), was applied in the presence and absence of 25 mM ACh. The cysteamine-activated peak current with 25 mM ACh, was normalized to the cysteamine-activated peak current without ACh."}, "ELIC A75D/F133W": {"target": "T2, ELIC A75D/F133W (Dickeya chrysanthemi, UniProt P0C7B7, A75D/F133W/INS163G)", "T2 construct": "expressed in transfected cells; host or cells: Xenopus laevis oocytes injected with cRNA; DNA construct synthesised by Twist Bioscience", "assay": "Two-electrode voltage clamp, A75D/F133W double mutant ELIC expressed in Xenopus laevis oocytes", "assay_type": "cell-based, Erwinia chrysanthemi", "description": "as §1, §2, §3\n(§4) Individual EC50 and Hill coefficients were averaged for each oocyte to derive a mean ± standard deviation. For identifying a half maximal inhibitory concentration (IC50) and Hill coefficient of ACh, a concentration of cysteamine corresponding to its EC50 was used in the presence of increasing concentrations of ACh. Peak currents elicited from cysteamine with ACh (I) were normalized to the initial cysteamine peak current in the absence of ACh (Io). The log (base 10) ACh concentration was then plotted on the x-axis against the fractional response (I/Io) on the y-axis. Subsequent steps were the same as above for deriving a cysteamine EC50 and Hill coefficient. The individual IC50 and Hill coefficients were averaged for each oocyte to derive a mean ± one standard deviation. Lastly, to identify four normalized response values, cysteamine at the 10% maximal effective concentration (EC10), 20% maximal effective concentration (EC20), EC50 and 90% maximal effective concentration (EC90), was applied in the presence and absence of 25 mM ACh. The cysteamine-activated peak current with 25 mM ACh, was normalized to the cysteamine-activated peak current without ACh."}, "ELIC Y38W [3]": {"tested_on": "ELIC Y38W", "assay": "Two-electrode voltage clamp, Y38W mutant ELIC expressed in Xenopus laevis oocytes", "assay_type": "cell-based, Erwinia chrysanthemi", "conditions": "Y38W", "description": "as §1, §2, §3, §4"}, "ELIC Y38W [4]": {"target": "ELIC Y38W (Dickeya chrysanthemi, UniProt P0C7B7, Y38W)", "assay": "Two-electrode voltage clamp, Y38W mutant ELIC expressed in Xenopus laevis oocytes", "assay_type": "cell-based, Erwinia chrysanthemi", "conditions": "Y38W", "description": "as §1, §2, §3, §4"}, "ELIC L240A (L9′A)": {"target": "T3, ELIC L240A (L9′A) (Dickeya chrysanthemi, UniProt P0C7B7, L239A)", "T3 construct": "expressed in transfected cells; host or cells: Xenopus laevis oocytes injected with cRNA from ELIC-pTLN", "assay": "Two-electrode voltage clamp, L240A (L9′A) mutant ELIC expressed in Xenopus laevis oocytes", "assay_type": "cell-based, Erwinia chrysanthemi", "description": "as §1, §2, §3\n(§5) Individual EC50 and Hill coefficients were averaged for each oocyte to derive a mean ± standard deviation. For identifying a half maximal inhibitory concentration (IC50) and Hill coefficient of ACh, a concentration of cysteamine corresponding to its EC50 was used in the presence of increasing concentrations of ACh. […]"}, "[5]": {"target": "T4, ELIC L240A (L9′A) + A75D/F133W (Dickeya chrysanthemi, UniProt P0C7B7, A75D/F133W/L239A)", "T4 construct": "expressed in transfected cells; host or cells: Xenopus laevis oocytes injected with cRNA", "assay": "Two-electrode voltage clamp, L9′A + A75D/F133W triple mutant ELIC expressed in Xenopus laevis oocytes", "assay_type": "cell-based, Erwinia chrysanthemi", "description": "as §1, §2, §3, §5"}, "[6]": {"conditions": "cysteamine as agonist, read-out: Activation EC50"}, "[7]": {"conditions": "read-out: Cysteamine concentration corresponding to EC90"}}, "note": "Entries after “also recorded” stand apart in the source; their conditions may differ."}
{"smiles": "NCCS", "note": "[cysteamine]", "values": [{"measurement": "Action on ELIC", "setting": "wild-type ELIC [1]", "value": "agonists"}, {"measurement": "Cysteamine concentration corresponding to EC10", "setting": "wild-type ELIC [2]; WT", "value": 200, "unit": "µM"}, {"measurement": "Cysteamine concentration corresponding to EC20", "setting": "wild-type ELIC [2]; WT", "value": 300, "unit": "µM"}, {"measurement": "Activation Hill coefficient", "setting": "wild-type ELIC [2]; WT ELIC, agonist activation", "value": "2.6 ± 0.4"}, {"measurement": "EC50", "setting": "wild-type ELIC [2]; WT ELIC, agonist-activated peak current, −60 mV, mean ± s.d., read-out: Activation EC50", "value": "600 ± 100", "unit": "µM"}, {"measurement": "Peak current on application of ligand alone", "setting": "wild-type ELIC [2]; WT, ACh 0.5 mM to 50 mM, followed by 5 mM cysteamine", "value": "robust peak current"}, {"measurement": "EC90", "setting": "wild-type ELIC [2]; WT, read-out: Cysteamine concentration corresponding to EC90", "value": 1300, "unit": "µM"}, {"measurement": "Cysteamine concentration corresponding to EC10", "setting": "ELIC A75D/F133W", "value": 3900, "unit": "µM"}, {"measurement": "Cysteamine concentration corresponding to EC20", "setting": "ELIC A75D/F133W", "value": 4800, "unit": "µM"}, {"measurement": "Activation by amine (whole-cell response)", "setting": "ELIC A75D/F133W; 25 mM amine, cysteamine at its EC50", "value": "still activated"}, {"measurement": "Activation Hill coefficient", "setting": "ELIC A75D/F133W; cysteamine as agonist", "value": "3.8 ± 0.3"}, {"measurement": "EC50", "setting": "ELIC A75D/F133W; [6]", "value": "6900 ± 700", "unit": "µM"}, {"measurement": "EC90", "setting": "ELIC A75D/F133W; [7]", "value": 12300, "unit": "µM"}, {"measurement": "Change in EC50 for cysteamine compared to wild-type", "setting": "ELIC Y38W [3]", "value": "unchanged"}, {"measurement": "Cysteamine concentration corresponding to EC10", "setting": "ELIC Y38W [4]", "value": 100, "unit": "µM"}, {"measurement": "Cysteamine concentration corresponding to EC20", "setting": "ELIC Y38W [4]", "value": 200, "unit": "µM"}, {"measurement": "Activation Hill coefficient", "setting": "ELIC Y38W [4]; cysteamine as agonist", "value": "1.4 ± 0.2"}, {"measurement": "EC50", "setting": "ELIC Y38W [4]; [6]", "value": "500 ± 100", "unit": "µM"}, {"measurement": "Peak current on application of ligand alone", "setting": "ELIC Y38W [4]; ACh 0.5 mM to 50 mM, followed by 5 mM cysteamine", "value": "robust peak current"}, {"measurement": "EC90", "setting": "ELIC Y38W [4]; [7]", "value": 2600, "unit": "µM"}, {"measurement": "Current on application of ligand alone", "setting": "ELIC L240A (L9′A); L9′A, 30 s applications of ACh 0.5 to 50 mM, then 5 mM cysteamine", "value": "robust peak current; also recorded: robust activation"}, {"measurement": "Activation Hill coefficient", "setting": "ELIC L240A (L9′A); L240A (L9′A), cysteamine as agonist", "value": "2.8 ± 0.1"}, {"measurement": "EC50", "setting": "ELIC L240A (L9′A); L240A (L9′A), cysteamine as agonist, read-out: Activation EC50", "value": "150 ± 10", "unit": "µM"}, {"measurement": "Current on application of ligand alone", "setting": "[5]; L9′A + A75D/F133W, 30 s applications of ACh 0.5 to 50 mM, then 5 mM cysteamine", "value": "robust peak current; also recorded: robust activation"}, {"measurement": "Activation Hill coefficient", "setting": "[5]; L240A (L9′A) + A75D/F133W, cysteamine as agonist", "value": "3.7 ± 0.3"}, {"measurement": "EC50", "setting": "[5]; L240A (L9′A) + A75D/F133W, cysteamine as agonist, read-out: Activation EC50", "value": "4300 ± 600", "unit": "µM"}]}
